This passage reports binding and Kd results from paper PMC5324105 (2017).

Structures are written as SMILES.

Experiment [1] deals with Ru(bpy)3^2+ aptamer (Δ 25@3', Δ 5@5'; 53 nt) (RNA, aptamer) GGGAUGGACGAUCAUAUAACGAUAGCACUGGCGUAGGGAGACUACGUGUCCGU
The experiment is described as follows: phosphorescence titration. The following applies: 100 mM NaCl, 5 mM MgCl2; 20 mM HEPES pH 7.0; 1 μM compound, RNA 1 to 10 μM.

Experiment [2] concerns Δ 25@3' (RNA, aptamer) GGGACACAAUGGACGAUCAUAUAACGAUAGCACUGGCGUAGGGAGACUACGUGUCCGU
As to the kind of experiment: phosphorescence titration. The following applies: 100 mM NaCl, 5 mM MgCl2; 20 mM HEPES pH 7.0; 1 μM compound, RNA 1 to 10 μM.

In experiment [3] the test system is Δ Loop2 (RNA, aptamer) GGGAUGGACGAUCAUAUAACGAUAGCGUAGGGAGACUACGUGUCCGU
As to the kind of experiment: phosphorescence titration. The following applies: 100 mM NaCl, 5 mM MgCl2; 20 mM HEPES pH 7.0; 1 μM compound, RNA up to 10 μM.

In experiment [4] the test system is 12Rd-1 (RNA, aptamer) GGGACACAAUGGACGGUACGUAUUGCGUGGGACCCCGCGCAAUGAACUGGCCGAGGGAGACUCGGUAACGGCCGACAUGAGAG
As to the kind of experiment: phosphorescence titration. The following applies: 100 mM NaCl, 5 mM MgCl2; 20 mM HEPES pH 7.0; 1 μM compound, RNA 1 to 10 μM.

Experiment [5] concerns Δ Hairpin loop1 (RNA, aptamer) GGGAUGGACGAUAGCACUGGCGUAGGGAGACUACGUGUCCGU
The experiment is described as follows: phosphorescence titration. The following applies: 100 mM NaCl, 5 mM MgCl2; 20 mM HEPES pH 7.0; 1 μM compound, RNA up to 10 μM.

Experiment [6] concerns 12Rd-3 (RNA, aptamer) GGGACACAAUGGACGUGGGGCUACAGACCAUCCGUUCUAUCCCGAGCACCGGGCCAAUCUCAAGUUAACGGCCGACAUGAGAG
As to the kind of experiment: phosphorescence titration. The following applies: 100 mM NaCl, 5 mM MgCl2; 20 mM HEPES pH 7.0; 1 μM compound, RNA up to 10 μM.

Experiment [7] relates to Δ 15@3' (RNA, aptamer) GGGACACAAUGGACGAUCAUAUAACGAUAGCACUGGCGUAGGGAGACUACGUGUCCGUGUGUACCUAA
As to the kind of experiment: phosphorescence titration. The following applies: 100 mM NaCl, 5 mM MgCl2; 20 mM HEPES pH 7.0; 1 μM compound, RNA 1 to 10 μM.

In experiment [8] the test system is 12Rd-5 (RNA, aptamer) GGGACACAAUGGACGAUCAUAUAACGAUAGCACUGGCGUAGGGAGACUACGUGUCCGUGUGUACCUAACGGCCGACAUGAGAG
The experiment is described as follows: phosphorescence titration. The following applies: 100 mM NaCl, 5 mM MgCl2; 20 mM HEPES pH 7.0; 1 μM compound, RNA 1 to 10 μM.

For experiment [9], the system named is 12Rd-2 (RNA, aptamer) GGGACACAAUGGACGGCAGAUCUGAGAGGGGAAGACCCUUUGUUAUUAACGAACUUGCGGUAUGAUAACGGCCGACAUGAGAG
As to the kind of experiment: phosphorescence titration. The following applies: 100 mM NaCl, 5 mM MgCl2; 20 mM HEPES pH 7.0; 1 μM compound, RNA 1 to 10 μM.

For experiment [10], the system named is Δ 31@3 (RNA, aptamer) GGGACACAAUGGACGAUCAUAUAACGAUAGCACUGGCGUAGGGAGACUACGU
As to the kind of experiment: phosphorescence titration. The following applies: 100 mM NaCl, 5 mM MgCl2; 20 mM HEPES pH 7.0; 1 μM compound, RNA up to 10 μM.

Experiment [11] deals with Ru(bpy)3^2+ aptamer (Δ 25@3', Δ 5@5'; 53 nt) (RNA, aptamer) GGGAUGGACGAUCAUAUAACGAUAGCACUGGCGUAGGGAGACUACGUGUCCGU
As to the kind of experiment: ITC. The following applies: Na+ (phosphate-buffered saline, concentration not stated); PBS (Takara T900); 5 μM aptamer in cell, 50 μM compound in syringe.

Experiment [12] deals with 12Rd-4 (RNA, aptamer) GGGACACAAUGGACGGGCACAAGGUCCCACCAUCUCAGACGAGAAAGGAUACGCAGAUCGGCGAAUAACGGCCGACAUGAGAG
The experiment is described as follows: phosphorescence titration. The following applies: 100 mM NaCl, 5 mM MgCl2; 20 mM HEPES pH 7.0; 1 μM compound, RNA up to 10 μM.

The test system of experiment [13] is 2'-F aptamer (RNA, aptamer, 2'-F RNA (DuraScribe T7 transcription; modified positions not stated)) GGGAUGGACGAUCAUAUAACGAUAGCACUGGCGUAGGGAGACUACGUGUCCGU
As to the kind of experiment: phosphorescence titration. The following applies: 100 mM NaCl, 5 mM MgCl2; 20 mM HEPES pH 7.0; 1 μM compound, RNA up to 10 μM.

For experiment [14], the system named is Δ Hairpin loop2 (RNA, aptamer) GGGAUGGACGAUCAUAUAACGAUAGCACUGGUGUCCGU
As to the kind of experiment: phosphorescence titration. The following applies: 100 mM NaCl, 5 mM MgCl2; 20 mM HEPES pH 7.0; 1 μM compound, RNA up to 10 μM.

Turning to `[Ru+2].c1ccc(-c2ccccn2)nc1.c1ccc(-c2ccccn2)nc1.c1ccc(-c2ccccn2)nc1`, the binding result in experiment [1] was “yes”; in experiment [2], “yes”; in [3] it was “no”; in experiment [5] it was “no”; in experiment [6], “no”; in experiment [7] it was “yes”. The binding result in experiment [10], in [11], in experiment [12], in experiment [13] and in [14] was “no” throughout. The Kd in [4] stood at 1600 nM; in experiment [8] it was 118 ± 90 nM; in [9] it was 1000 nM; in experiment [11], 65 nM.
